Calls of active or inactive are those of the source.
Key:
[1] = IC50 of Artemis nuclease activity blockers – biochemical, fluorescence intensity, dose response (AID 720701); type: functional;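 note: Artemis endonuclease enzyme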
[2] = microbe, parasite or virus in culture; type: functional; details: Mycobacterium tuberculosis
[3] = Counterscreen for AddAB inhibitors: absorbance-based bacterial cell-based high throughput dose response assay for inhibitors of bacterial viability. [Related pubchem assays (depositor defined):AID435030, AID449728, AID449731, AID488942, AID488955, AID488956]; type: functional
Caspase-6 = Caspase-6 (Homo sapiens, UniProt P55212); assay: inhibition of CASP6 peptide cleavage – biochemical, VEID-R110 fluorescence, cherry-pick, dose response (AID 720632)
Chain of Caspase-6 (P55212 24-179 limits assumed): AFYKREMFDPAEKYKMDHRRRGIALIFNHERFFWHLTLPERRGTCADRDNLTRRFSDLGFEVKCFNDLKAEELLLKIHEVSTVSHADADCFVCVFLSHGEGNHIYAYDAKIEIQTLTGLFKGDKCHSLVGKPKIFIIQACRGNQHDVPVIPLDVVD
Chain of Caspase-6 (P55212 194-293 limits assumed): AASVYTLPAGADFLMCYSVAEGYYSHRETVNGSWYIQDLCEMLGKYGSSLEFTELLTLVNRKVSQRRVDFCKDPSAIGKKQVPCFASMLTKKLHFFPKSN

Beta-galactosidase = Beta-galactosidase (Escherichia coli, UniProt Q8VNN2); assay: detection-enzyme interference by beta-gal modulators – biochemical, E. coli enzyme, set 3, artefact control for CCR6 antagonist project, dose response (AID 504712); type: functional
Chain of Beta-galactosidase (Q8VNN2 whole entry): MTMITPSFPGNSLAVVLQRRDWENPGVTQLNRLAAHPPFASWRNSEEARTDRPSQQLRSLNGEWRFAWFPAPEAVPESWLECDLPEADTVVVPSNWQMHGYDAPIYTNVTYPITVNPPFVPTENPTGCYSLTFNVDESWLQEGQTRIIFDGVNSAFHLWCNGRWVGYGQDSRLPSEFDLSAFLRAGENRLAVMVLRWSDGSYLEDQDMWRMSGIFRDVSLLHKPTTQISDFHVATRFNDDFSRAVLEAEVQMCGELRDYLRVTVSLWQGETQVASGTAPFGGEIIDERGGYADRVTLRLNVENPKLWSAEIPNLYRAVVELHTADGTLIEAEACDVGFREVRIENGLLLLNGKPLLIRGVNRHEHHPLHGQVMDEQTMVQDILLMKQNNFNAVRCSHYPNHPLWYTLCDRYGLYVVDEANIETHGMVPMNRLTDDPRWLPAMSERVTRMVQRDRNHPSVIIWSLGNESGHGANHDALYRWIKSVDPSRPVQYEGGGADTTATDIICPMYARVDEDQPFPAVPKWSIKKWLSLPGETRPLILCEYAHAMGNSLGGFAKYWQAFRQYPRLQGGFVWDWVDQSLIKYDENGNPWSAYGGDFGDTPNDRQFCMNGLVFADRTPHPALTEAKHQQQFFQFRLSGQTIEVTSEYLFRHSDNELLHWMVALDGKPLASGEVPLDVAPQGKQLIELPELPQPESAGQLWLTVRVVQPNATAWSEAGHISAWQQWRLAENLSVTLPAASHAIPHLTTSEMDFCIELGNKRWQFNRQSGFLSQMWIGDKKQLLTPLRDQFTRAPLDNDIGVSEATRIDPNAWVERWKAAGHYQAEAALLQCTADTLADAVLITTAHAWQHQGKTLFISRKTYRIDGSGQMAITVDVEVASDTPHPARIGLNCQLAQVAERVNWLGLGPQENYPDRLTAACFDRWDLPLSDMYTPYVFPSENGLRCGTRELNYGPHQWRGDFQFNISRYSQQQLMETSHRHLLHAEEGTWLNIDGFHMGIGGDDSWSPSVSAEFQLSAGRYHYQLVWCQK

Exodeoxyribonuclease V = molecular target: T1, Exodeoxyribonuclease V (Escherichia coli (strain K12), UniProt P04993+P07648+P08394); assay: RecBCD inhibition via phage-restricted bacterial growth – absorbance, V66 E. coli, mutant T4 phage, counter-screen for AddAB inhibitor project, dose response (AID 492957); type: functional, cell-based, Escherichia coli str. K-12 substr. MG1655
T1 sequence (P04993 whole entry): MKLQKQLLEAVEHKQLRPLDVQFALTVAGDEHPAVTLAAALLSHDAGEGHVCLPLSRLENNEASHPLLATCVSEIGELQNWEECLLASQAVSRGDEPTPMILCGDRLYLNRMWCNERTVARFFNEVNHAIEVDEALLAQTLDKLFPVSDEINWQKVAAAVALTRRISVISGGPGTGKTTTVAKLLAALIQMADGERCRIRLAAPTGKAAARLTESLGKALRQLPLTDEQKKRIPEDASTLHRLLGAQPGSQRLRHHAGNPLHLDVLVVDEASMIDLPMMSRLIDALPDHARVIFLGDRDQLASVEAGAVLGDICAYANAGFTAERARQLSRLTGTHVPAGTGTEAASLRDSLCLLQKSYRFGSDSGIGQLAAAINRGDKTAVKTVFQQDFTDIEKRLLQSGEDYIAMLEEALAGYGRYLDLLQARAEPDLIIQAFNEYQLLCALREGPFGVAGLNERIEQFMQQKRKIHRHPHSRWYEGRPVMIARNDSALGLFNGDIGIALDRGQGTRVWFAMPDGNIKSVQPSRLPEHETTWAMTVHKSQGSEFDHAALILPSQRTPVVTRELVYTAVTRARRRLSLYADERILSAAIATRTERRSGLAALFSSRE
T1 sequence (P07648 whole entry): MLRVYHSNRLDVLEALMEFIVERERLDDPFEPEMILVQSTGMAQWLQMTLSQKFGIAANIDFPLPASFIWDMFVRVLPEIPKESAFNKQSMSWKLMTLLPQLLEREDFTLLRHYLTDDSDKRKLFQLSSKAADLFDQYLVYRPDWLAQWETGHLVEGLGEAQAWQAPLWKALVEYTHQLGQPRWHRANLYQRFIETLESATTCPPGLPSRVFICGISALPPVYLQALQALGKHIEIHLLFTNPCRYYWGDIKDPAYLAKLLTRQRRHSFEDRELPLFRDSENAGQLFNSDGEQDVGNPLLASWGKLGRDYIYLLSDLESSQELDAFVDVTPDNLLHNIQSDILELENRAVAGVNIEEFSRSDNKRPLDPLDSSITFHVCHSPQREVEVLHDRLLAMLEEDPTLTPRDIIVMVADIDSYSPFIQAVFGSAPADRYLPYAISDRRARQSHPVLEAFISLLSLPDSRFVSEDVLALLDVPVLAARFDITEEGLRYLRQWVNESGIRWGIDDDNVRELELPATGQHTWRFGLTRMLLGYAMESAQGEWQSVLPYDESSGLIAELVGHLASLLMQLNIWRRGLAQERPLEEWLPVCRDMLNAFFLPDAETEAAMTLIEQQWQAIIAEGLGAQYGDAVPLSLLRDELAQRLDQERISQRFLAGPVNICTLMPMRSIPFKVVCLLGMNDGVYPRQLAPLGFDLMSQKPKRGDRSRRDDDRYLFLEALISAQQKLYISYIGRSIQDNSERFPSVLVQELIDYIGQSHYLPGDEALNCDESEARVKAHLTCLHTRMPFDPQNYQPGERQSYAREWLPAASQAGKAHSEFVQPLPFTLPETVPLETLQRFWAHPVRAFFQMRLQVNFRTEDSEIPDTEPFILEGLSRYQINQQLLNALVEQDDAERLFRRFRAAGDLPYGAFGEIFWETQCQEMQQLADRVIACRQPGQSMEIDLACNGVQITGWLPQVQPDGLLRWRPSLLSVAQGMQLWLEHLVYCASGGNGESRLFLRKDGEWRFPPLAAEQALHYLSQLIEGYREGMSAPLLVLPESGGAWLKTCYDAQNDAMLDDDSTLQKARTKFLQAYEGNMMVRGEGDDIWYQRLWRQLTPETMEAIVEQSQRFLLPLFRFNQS
T1 sequence (P08394 whole entry): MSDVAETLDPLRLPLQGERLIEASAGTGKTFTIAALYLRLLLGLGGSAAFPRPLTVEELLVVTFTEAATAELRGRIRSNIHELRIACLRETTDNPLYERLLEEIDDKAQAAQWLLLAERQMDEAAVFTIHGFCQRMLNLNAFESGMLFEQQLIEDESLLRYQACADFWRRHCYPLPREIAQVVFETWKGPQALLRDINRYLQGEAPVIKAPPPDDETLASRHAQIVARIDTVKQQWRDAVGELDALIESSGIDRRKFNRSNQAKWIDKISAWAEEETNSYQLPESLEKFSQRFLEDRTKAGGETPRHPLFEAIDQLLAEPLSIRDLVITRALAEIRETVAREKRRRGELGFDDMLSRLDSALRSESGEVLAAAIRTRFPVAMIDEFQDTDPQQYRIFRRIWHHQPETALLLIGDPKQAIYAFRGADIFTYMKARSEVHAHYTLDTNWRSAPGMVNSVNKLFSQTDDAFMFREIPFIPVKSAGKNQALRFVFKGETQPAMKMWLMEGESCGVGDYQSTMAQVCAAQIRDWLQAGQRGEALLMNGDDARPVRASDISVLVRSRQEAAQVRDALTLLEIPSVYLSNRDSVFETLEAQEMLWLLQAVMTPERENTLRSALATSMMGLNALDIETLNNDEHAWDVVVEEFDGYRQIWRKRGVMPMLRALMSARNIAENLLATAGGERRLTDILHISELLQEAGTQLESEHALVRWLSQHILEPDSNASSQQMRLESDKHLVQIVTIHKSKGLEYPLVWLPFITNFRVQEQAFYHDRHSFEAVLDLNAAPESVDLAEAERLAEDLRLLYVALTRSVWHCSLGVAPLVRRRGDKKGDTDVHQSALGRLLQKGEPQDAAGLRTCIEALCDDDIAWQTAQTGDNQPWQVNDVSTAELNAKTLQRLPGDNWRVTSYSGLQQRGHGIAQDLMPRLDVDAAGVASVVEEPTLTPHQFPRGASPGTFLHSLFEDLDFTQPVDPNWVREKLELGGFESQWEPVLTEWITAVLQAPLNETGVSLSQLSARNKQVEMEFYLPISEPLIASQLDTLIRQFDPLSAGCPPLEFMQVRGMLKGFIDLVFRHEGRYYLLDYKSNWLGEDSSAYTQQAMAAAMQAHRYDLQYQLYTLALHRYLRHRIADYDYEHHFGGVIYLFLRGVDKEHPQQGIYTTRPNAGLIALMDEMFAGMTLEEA

[4] = molecular target: T2, Oxysterols receptor LXR-beta (Homo sapiens, UniProt P55055); type: functional, cell-based;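 note: Cell-based luminescence dose-response assay of agonist activity at LXR, run as a confirmatory counterscreen to a daf-12 agonist screen; HEK293 cells with Gal4-LXR fusion and GAL4-driven luciferase reporter; agonist potency from rising luciferase signal of a Gal4-LXR reporter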
T2 sequence (P55055 whole entry): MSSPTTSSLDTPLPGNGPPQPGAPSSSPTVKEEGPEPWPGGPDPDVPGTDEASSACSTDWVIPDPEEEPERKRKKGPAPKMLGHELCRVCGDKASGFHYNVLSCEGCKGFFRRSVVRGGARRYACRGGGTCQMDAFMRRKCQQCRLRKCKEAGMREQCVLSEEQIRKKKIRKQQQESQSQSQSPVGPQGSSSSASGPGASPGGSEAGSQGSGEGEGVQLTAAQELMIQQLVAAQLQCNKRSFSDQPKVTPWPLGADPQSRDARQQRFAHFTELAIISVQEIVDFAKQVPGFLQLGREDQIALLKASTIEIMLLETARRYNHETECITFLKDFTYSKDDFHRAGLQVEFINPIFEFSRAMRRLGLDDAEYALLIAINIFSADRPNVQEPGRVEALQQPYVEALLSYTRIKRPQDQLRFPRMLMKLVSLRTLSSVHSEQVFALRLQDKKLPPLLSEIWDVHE

fMet-Leu-Phe receptor = fMet-Leu-Phe receptor (Homo sapiens, UniProt P21462); assay: formyl peptide receptor binders – dose response (AID 519); type: functional
Chain of fMet-Leu-Phe receptor (P21462 whole entry): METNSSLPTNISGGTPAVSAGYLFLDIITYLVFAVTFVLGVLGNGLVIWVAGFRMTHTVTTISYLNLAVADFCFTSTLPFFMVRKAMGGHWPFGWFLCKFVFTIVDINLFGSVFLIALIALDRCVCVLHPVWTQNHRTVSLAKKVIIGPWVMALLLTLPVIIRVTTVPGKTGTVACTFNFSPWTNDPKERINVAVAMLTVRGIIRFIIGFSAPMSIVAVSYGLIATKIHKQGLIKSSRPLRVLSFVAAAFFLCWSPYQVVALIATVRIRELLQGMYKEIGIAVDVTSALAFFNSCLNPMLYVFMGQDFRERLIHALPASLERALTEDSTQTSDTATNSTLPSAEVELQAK

[5] = reduced cellular PGC1a acetyl-lysine signal – cell-based, cherry-picked samples, dose response (AID 720514); type: functional;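 note: potency may reflect raised or lowered acetylation signal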

SMILES: COc1ccc2nc(NC(=O)C3CCCN(S(=O)(=O)c4cccs4)C3)sc2c1 (stereo not given)
- IC50 [1]: > 20 µM (inactive)
- CC50 [2]: 35.4 µM (active)

SMILES: O=C(O)c1ccc(N/N=C/C=C/c2ccc([N+](=O)[O-])o2)cc1
- IC50 [3]: 55.5 µM (inactive)
- AC50 (Caspase-6): 3.34 µM (active)
- IC50 (Beta-galactosidase): 33 µM (active)
- IC50 (Exodeoxyribonuclease V): > 119 µM (inactive)

SMILES: Cc1nn(-c2ccc(Br)cc2)c(=O)c2ccccc12
- EC50 (cells): > 67.6 µM (inactive)
- EC50 [4]: > 67.6 µM (inactive)

SMILES: O=C(C1=C(O)C(=O)N(Cc2ccccc2)C1c1ccco1)c1ccco1 (stereo not given)
- Ki (fMet-Leu-Phe receptor): 12.4 µM (active)

SMILES: O=C(C(Br)=Cc1ccccc1)c1ccccc1
- AC50 [5]: 10.9 µM (active)

— ChEMBL document CHEMBL1201862, “PubChem BioAssay data set” (2004)
